Measurements: the NIST ThermoML archive (doi:10.1021/je034087q)

Test: xn = mol fraction of the nth substance listed
Conditions: Fluid (supercritical or subcritical phases), x2 = 0.901

CCCCC [pentane] + O=C=O
mass density [kg/m3]
Conditions	326.15 K	328.15 K
8540 kPa	461	–
8560 kPa	465	–
8580 kPa	469	–
8610 kPa	472	–
8630 kPa	476	–
8650 kPa	–	431
8670 kPa	481	–
8690 kPa	–	436
8700 kPa	486	–
8720 kPa	–	442
8740 kPa	491	–
8760 kPa	–	448
8780 kPa	496	–
8830 kPa	–	459
8840 kPa	503	–
8870 kPa	509	–
8880 kPa	–	465
8920 kPa	516	–
8930 kPa	–	473
8970 kPa	520	475
9010 kPa	524	–
9030 kPa	–	483
9080 kPa	531	–
9100 kPa	–	491
9160 kPa	538	499
9220 kPa	544	–
9230 kPa	–	507
9320 kPa	–	517
9350 kPa	551	–
9410 kPa	–	524
9420 kPa	558	–
9500 kPa	562	–
9530 kPa	–	533
9560 kPa	567	–
9630 kPa	–	542
9680 kPa	573	–
9760 kPa	579	552
9870 kPa	583	–
9930 kPa	–	562
9990 kPa	590	–
10030 kPa	–	568
10130 kPa	595	572
10230 kPa	–	579
10250 kPa	601	–
10350 kPa	–	584
10380 kPa	–	586
10410 kPa	608	–
10490 kPa	–	590
10580 kPa	–	594
10720 kPa	618	–
10750 kPa	–	601
10880 kPa	–	606
10920 kPa	625	–
11060 kPa	–	612
11140 kPa	–	614
11150 kPa	631	–
11380 kPa	638	–
11500 kPa	–	625
11660 kPa	645	–
11670 kPa	–	629
11800 kPa	–	634
11950 kPa	652	–
11970 kPa	–	639
12180 kPa	–	642
12280 kPa	658	–
12340 kPa	–	646
12560 kPa	–	652
12630 kPa	666	–
12760 kPa	–	655
13020 kPa	–	661
13030 kPa	673	–
13280 kPa	–	665
13480 kPa	680	–
13560 kPa	–	669
13790 kPa	–	674
13950 kPa	686	–
14260 kPa	–	682
14540 kPa	696	–
14800 kPa	700	–
14810 kPa	–	691
